ChEMBL document CHEMBL5370692, “Synthesis and Evaluation of Small Molecule Inhibitors of the Androgen Receptor N-Terminal Domain” (ACS Med Chem Lett, 2023)

Molecular target: T1, Androgen receptor (Homo sapiens, UniProt P10275)
T1 sequence (P10275 whole entry): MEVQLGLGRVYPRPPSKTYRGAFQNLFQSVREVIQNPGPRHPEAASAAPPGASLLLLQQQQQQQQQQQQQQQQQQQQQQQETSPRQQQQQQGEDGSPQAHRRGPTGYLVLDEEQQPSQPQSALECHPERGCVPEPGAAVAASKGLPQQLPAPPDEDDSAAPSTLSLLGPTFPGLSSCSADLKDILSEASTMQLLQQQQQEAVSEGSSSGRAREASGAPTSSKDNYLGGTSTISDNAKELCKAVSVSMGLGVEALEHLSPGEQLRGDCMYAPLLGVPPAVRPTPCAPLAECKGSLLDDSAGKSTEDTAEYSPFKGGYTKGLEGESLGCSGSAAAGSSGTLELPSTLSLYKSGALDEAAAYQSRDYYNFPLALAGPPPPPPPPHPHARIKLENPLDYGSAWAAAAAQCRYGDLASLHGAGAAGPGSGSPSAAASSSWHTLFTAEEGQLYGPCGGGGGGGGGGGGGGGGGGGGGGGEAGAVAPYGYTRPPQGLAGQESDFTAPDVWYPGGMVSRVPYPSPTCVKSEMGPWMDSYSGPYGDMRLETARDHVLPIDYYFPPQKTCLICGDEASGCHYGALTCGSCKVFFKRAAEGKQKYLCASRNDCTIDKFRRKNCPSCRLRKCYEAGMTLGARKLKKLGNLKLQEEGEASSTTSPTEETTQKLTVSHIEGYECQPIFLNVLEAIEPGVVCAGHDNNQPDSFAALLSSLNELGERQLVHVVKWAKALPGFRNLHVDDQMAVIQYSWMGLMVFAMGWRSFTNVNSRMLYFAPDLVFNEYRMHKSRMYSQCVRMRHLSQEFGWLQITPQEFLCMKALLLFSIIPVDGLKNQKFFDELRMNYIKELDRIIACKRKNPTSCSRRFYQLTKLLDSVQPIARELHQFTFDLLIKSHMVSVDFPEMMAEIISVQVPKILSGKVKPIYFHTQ
Assay: Inhibition of androgen receptor in human VCaP cells expressing GRE-2-TATA-Luc co-expressing firefly luciferase incubated for 24 hrs in presence of DHT by luciferase reporter gene assay
Type: cell-based

IC50: 800 nM
SMILES: CSc1ccc(C(N)=O)cc1-c1ccc2cnccc2c1
